The results in this text go back to US9522920B2, “Bromodomain inhibitors and uses thereof” (Constellation Pharmaceuticals, Inc., priority 2010, dated 2016).

In one assay the target is T1, BRD4(BD1) (Homo sapiens, UniProt O60885).
T1 construct: His; made in house
Nature of the assay: BRD4 AlphaLisa binding assay (Alphascreen). The protocol:
Specifically, in a 384 well ProxiPlate BRD4(BD1) (30 nM final) was combined with peptide (200 nM final) in 40 mM HEPES (pH 7.0), 40 mM NaCl, 1 mM DTT, 0.01% (w/v) BSA, and 0.008% (w/v) Brij-35 either in the presence of DMSO (final 1.2% DMSO) or compound dilution series in DMSO. After 20 minute incubation at room temperature Alpha streptavidin donor beads and AlphaLisa anti-Flag acceptor beads were added to a final concentration of 10 ug/mL each. After three hours equilibration plates were read on an Envision instrument and IC50s calculated using a four parameter non-linear curve fit.

A further assay has as its system IL-6 secretion. Nature of the assay: Cell-based IL-6 quantification assay (ELISA, Mesoscale) in LPS-stimulated THP-1 cells. The note with it: THP-1 cells, 16 h, read-out: IL6. On the procedure: 100,000 THP-1 cells were seeded in RPMI1640-10% FBS in 96-well plates. LPS (E. Coli Invitrogen) in RPMI-10% FBS at a final concentration of 4 μg/mL was added to the wells and the cells are then incubated in the presence of various concentrations of compounds for 16 h. Plates are spun ([…], 5 min), an aliquot of 25 uL supernatant is transferred in to an ELISA plate (Mesoscale technology, MSD) and the detection of IL-6 is performed using manufacturer's instructions. The amount of cells in each well is assessed using CellTiter-Glo® (Promega). The ratio of ELISA value/CellTiter-Glo value is used to calculate the percent of inhibition of IL-6 secretion.

Another assay has as its system MYC mRNA. In words: cMyc RNA quantification assay (QuantiGene) in Raji cells. Format: cell-based. The note with it: Table 7, Raji (Burkitt's lymphoma) cells, 4 h. The protocol:
MV4:11 (AML) or Raji (Burkitt's lymphoma) cells were seeded in a 96-well plate and incubated in the presence of various concentrations of compounds for 4 h. Relative mRNA levels were quantitated by using QuantiGene 2.0 assay (Affymetrix) according to the manufacturer's recommendation. Signals were detected by using an Envision plate reader (Perkin-Elmer). Biological duplicates were averaged and normalized to vehicle (DMSO) control to calculate percent MYC mRNA levels.

Setting [1] is: Table 6, BRD4(BD1) 30 nM, H4-tetraacetyl peptide 200 nM, read-out: BRD4 Alphascreen IC50.
Setting [2] is: Homo sapiens, THP-1, 16 h, Table 7, LPS 4 μg/mL, normalised to CellTiter-Glo.
The mark [3] stands for this setting: Table 7, LPS 4 μg/mL, normalised to CellTiter-Glo.
The mark [4] stands for this setting: Table 14, BRD4 AlphaLisa Binding Assay, read-out: Alpha screen.
[5] abbreviates: Homo sapiens, THP-1, 16 h, Table 14, LPS.

pIC50: −log10 of the molar value. Read-outs that look alike come from different tables or passages of the source. A value given as a limit tells only on which side of the number the result lay.

Take `Cc1noc2c1-c1sc(C)c(C)c1C(c1ccc(N)nc1)=NC2CC(N)=O` (centres unmarked) [Compound 102]: the pIC50 at BRD4(BD1) (setting [1]), in the assay on IL-6 secretion (setting [2]) and with MYC mRNA (Homo sapiens) was over 6.30 in each case.

Turning to `Cc1noc2c1-c1sc(C)c(C)c1C(c1ccc(Cl)cn1)=NC2CC(N)=O` (centres unmarked) [Compound 103], the pIC50 on BRD4(BD1) (setting [1]), with IL-6 secretion (setting [2]) and in the assay with MYC mRNA (Homo sapiens) was over 6.30 each time.

Regarding `Cc1noc2c1-c1sc(C)c(C)c1C(c1ccccc1)=NC2CC(N)=O` (centres unmarked) [Compound 108], the pIC50 at BRD4(BD1) (setting [1]), with IL-6 secretion (setting [2]) and in the assay on MYC mRNA (Homo sapiens) was over 6.30 each time.

As for `Cc1noc2c1-c1sc(C)c(C)c1C(c1ccc(F)cc1)=NC2CC(N)=O` (centres unmarked) [Compound 109], the pIC50 at BRD4(BD1) (setting [1]), in the assay on IL-6 secretion (setting [2]) and in the assay with MYC mRNA (Homo sapiens) was over 6.30 each time.

For `Cc1cc(Cl)ccc1C1=NC(CC(N)=O)c2onc(C)c2-c2sc(C)c(C)c21` (centres unmarked) [Compound 112], the pIC50 at BRD4(BD1) (setting [1]), with IL-6 secretion (setting [2]) and with MYC mRNA (Homo sapiens) was over 6.30 throughout.

`CCNC(=O)CC1N=C(c2ccc(C#N)cc2)c2c(sc(C)c2C)-c2c(C)noc21` (centres unmarked) [Compound 113]: the pIC50 on BRD4(BD1) (setting [1]), in the assay with IL-6 secretion (setting [2]) and in the assay on MYC mRNA (Homo sapiens) was over 6.30 throughout.

On to `Cc1noc2c1-c1sc(C)c(C)c1C(c1ccc(C#N)cc1)=NC2CC(N)=O` (centres unmarked) [Compound 115], for which the pIC50 on BRD4(BD1) (setting [1]), with IL-6 secretion (setting [2]) and with MYC mRNA (Homo sapiens) was over 6.30 each time.

Take `Cc1noc2c1-c1sc(C)c(C)c1C(c1ccc(C(N)=O)cc1)=NC2CC(N)=O` (centres unmarked) [Compound 116]: the pIC50 on BRD4(BD1) (setting [1]), with IL-6 secretion (setting [2]) and in the assay on MYC mRNA (Homo sapiens) was over 6.30 throughout.

For `CC(=O)Nc1ccc(C2=NC(CC(N)=O)c3onc(C)c3-c3sc(C)c(C)c32)cc1` (centres unmarked) [Compound 118], the pIC50 on BRD4(BD1) (setting [1]), in the assay on IL-6 secretion (setting [2]) and with MYC mRNA (Homo sapiens) was over 6.30 each time.

For `Cc1noc2c1-c1sc(C)c(C)c1C(c1ccc(=O)n(C)c1)=NC2CC(N)=O` (centres unmarked) [Compound 120], the pIC50 on BRD4(BD1) (setting [1]) was over 6.30; in the assay on IL-6 secretion (setting [2]) it was over 6.30; with MYC mRNA (Homo sapiens), 6.00 to 6.30.

On to `CCCC1=NC(CC(N)=O)c2onc(C)c2-c2sc(C)c(C)c21` (centres unmarked) [Compound 124], for which the pIC50 on BRD4(BD1) (setting [1]) was over 6.30; in the assay on IL-6 secretion (setting [2]), 6.00 to 6.30; with MYC mRNA (Homo sapiens) it was under 6.00.

Consider `Cc1noc2c1-c1sc(C)c(C)c1C(C1CCCCC1)=NC2CC(N)=O` (centres unmarked) [Compound 126], for which the pIC50 is over 6.30 on BRD4(BD1) (setting [1]), over 6.30 in the assay on IL-6 secretion (setting [2]) and under 6.00 in the assay on MYC mRNA (Homo sapiens).

As to `Cc1cccc2c1C(c1ccncc1)=N[C@@H](CC(N)=O)c1onc(C)c1-2` [Compound 131], the pIC50 at BRD4(BD1) (setting [1]), with IL-6 secretion (setting [3]) and in the assay on MYC mRNA was over 6.30 throughout.

With `Cc1cccc2c1C(c1ccc(Cl)cn1)=N[C@@H](CC(N)=O)c1onc(C)c1-2` [Compound 133], the pIC50 was over 6.30 on BRD4(BD1) (setting [1]), over 6.30 with IL-6 secretion (setting [3]) and 6.00 to 6.30 with MYC mRNA.

On to `Cc1cccc2c1C(c1ccc(C(N)=O)cc1)=N[C@@H](CC(N)=O)c1onc(C)c1-2` [Compound 134], for which the pIC50 at BRD4(BD1) (setting [1]) was over 6.30; in the assay with IL-6 secretion (setting [3]) it was over 6.30; with MYC mRNA, 6.00 to 6.30.

As to `COc1ccc(C2=N[C@@H](CC(N)=O)c3onc(C)c3-c3cccc(C)c32)cc1` [Compound 135], the pIC50 on BRD4(BD1) (setting [1]), in the assay on IL-6 secretion (setting [3]) and in the assay on MYC mRNA was over 6.30 in each case.

As to `Cc1noc2c1-c1cccc(Cl)c1C(c1ccncc1)=N[C@H]2CC(N)=O` [Compound 137], the pIC50 at BRD4(BD1) (setting [1]) was over 6.30; in the assay with IL-6 secretion (setting [2]), over 6.30; in the assay on MYC mRNA (Homo sapiens), 6.00 to 6.30.

On to `Cc1noc2c1-c1cccc(Cl)c1C(c1ccc(F)cc1)=N[C@H]2CC(N)=O` [Compound 138], for which the pIC50 on BRD4(BD1) (setting [1]), in the assay with IL-6 secretion (setting [3]) and with MYC mRNA was over 6.30 throughout.

Turning to `Cc1noc2c1-c1cccc(Cl)c1C(c1ccc(C#N)cc1)=N[C@H]2CC(N)=O` [Compound 140], the pIC50 at BRD4(BD1) (setting [1]), in the assay on IL-6 secretion (setting [3]) and in the assay on MYC mRNA was over 6.30 throughout.

Regarding `Cc1noc2c1-c1ccc(Cl)cc1C(c1ccc(Cl)cc1)=N[C@H]2CC(N)=O` [Compound 141], the pIC50 at BRD4(BD1) (setting [1]) was over 6.30; in the assay with IL-6 secretion (setting [3]) it was over 6.30; in the assay with MYC mRNA, under 6.00.

For the molecule `Cc1noc2c1-c1ccc(Cl)cc1C(c1ccc(C#N)cc1)=N[C@H]2CC(N)=O` [Compound 142], the pIC50 is over 6.30 at BRD4(BD1) (setting [1]), over 6.30 with IL-6 secretion (setting [3]) and 6.00 to 6.30 in the assay with MYC mRNA.

Take `CCNC(=O)C[C@@H]1N=C(c2ccc(C#N)cc2)c2cc(Cl)ccc2-c2c(C)noc21` [Compound 143]: the pIC50 was over 6.30 at BRD4(BD1) (setting [1]), over 6.30 in the assay on IL-6 secretion (setting [3]) and 6.00 to 6.30 in the assay with MYC mRNA.

Consider `COc1ccc(C2=N[C@@H](CC(N)=O)c3onc(C)c3-c3ccccc32)cc1` [Compound 146], for which the pIC50 on BRD4(BD1) (setting [1]), in the assay with IL-6 secretion (setting [2]) and in the assay with MYC mRNA (Homo sapiens) was over 6.30 throughout.

On to `COc1cccc(C2=N[C@@H](CC(N)=O)c3onc(C)c3-c3ccccc32)c1` [Compound 147], for which the values for the pIC50 at BRD4(BD1) (setting [1]), in the assay on IL-6 secretion (setting [3]) and with MYC mRNA were over 6.30, over 6.30 and 6.00 to 6.30, respectively.

For `CCNC(=O)C[C@@H]1N=C(c2ccc(C#N)cc2)c2ccccc2-c2c(C)noc21` [Compound 149], the pIC50 on BRD4(BD1) (setting [1]), in the assay on IL-6 secretion (setting [3]) and in the assay on MYC mRNA was over 6.30 throughout.

With `COCCNC(=O)C[C@@H]1N=C(c2ccc(C#N)cc2)c2ccccc2-c2c(C)noc21` [Compound 150], the pIC50 on BRD4(BD1) (setting [1]), with IL-6 secretion (setting [3]) and with MYC mRNA was over 6.30 each time.

For the molecule `Cc1noc2c1-c1ccccc1C(N1CCOCC1)=N[C@H]2CC(N)=O` [Compound 152], the pIC50 at BRD4(BD1) (setting [1]), in the assay on IL-6 secretion (setting [2]) and in the assay on MYC mRNA (Homo sapiens) was under 6.00 in each case.

As to `CCOC(=O)NC1N=C(c2ccc(Cl)cc2)c2ccccc2-c2c1noc2C` (centres unmarked) [Compound 155, Ethyl (6-(4-chlorophenyl)-1-methyl-4H-benzo[c]isoxazolo[4,3-e]azepin-4-yl)carbamate], the pIC50 at BRD4(BD1) (setting [1]) is over 6.30; in the assay with IL-6 secretion (setting [2]) it was 6.00 to 6.30; in the assay on MYC mRNA (Homo sapiens) it was over 6.30.

For the molecule `CCNC(=O)C[C@@H]1N=C(c2ccc(Cl)cc2)c2ccccc2-c2c(C)noc21` [Compound 159, 2-((4S)-6-(4-chlorophenyl)-1-methyl-4H-benzo[c]isoxazolo[4,5-e]azepin-4-yl)-N-ethylacetamide], the pIC50 at BRD4(BD1) (setting [1]), in the assay with IL-6 secretion (setting [2]) and in the assay with MYC mRNA (Homo sapiens) was over 6.30 throughout.

As for `CCNC(=O)C[C@@H]1N=C(c2ccc(Cl)cc2)c2cc(OC)ccc2-c2c(C)noc21` [Compound 160, 2-((4S)-6-(4-chlorophenyl)-8-methoxy-1-methyl-4H-benzo[c]isoxazolo[4,5-e]azepin-4-yl)-N-ethylacetamide], the pIC50 on BRD4(BD1) (setting [1]), with IL-6 secretion (setting [2]) and with MYC mRNA (Homo sapiens) was over 6.30 throughout.

Regarding `Cc1noc2c1-c1sc(C)c(C)c1C(OC(C)C)=N[C@H]2CC(N)=O` [Compound 193], the pIC50 at BRD4(BD1) (setting [4]) is 6.00 to 6.30; with IL-6 secretion (Table 14, LPS) it was under 6.00.

With `Cc1noc2c1-c1sc(C)c(C)c1C(C1CCN(C)CC1)=N[C@H]2CC(N)=O` [Compound 194], the pIC50 on BRD4(BD1) (setting [4]) is under 6.00; with IL-6 secretion (Table 14, LPS), under 6.00.

Regarding `Cc1noc2c1-c1sc(C)c(C)c1C(C(C)c1ccccc1)=N[C@H]2CC(N)=O` (some centres unmarked) [Compound 195], the pIC50 was under 6.00 at BRD4(BD1) (setting [4]) and under 6.00 with IL-6 secretion (Table 14, LPS).

As to `CC(=O)NC1N=C(c2ccc(C#N)cc2)c2ccccc2-c2c(C)noc21` (centres unmarked) [Compound 263, N-(6-(4-cyanophenyl)-1-methyl-4,1-benzo[c]isoxazolo[4,5-e]azepin-4-yl)acetamide], the pIC50 on BRD4(BD1) (setting [4]) and in the assay on IL-6 secretion (setting [5]) was over 6.30 in each case.

Regarding `Cc1noc2c1-c1c[nH]c(=O)cc1C(c1ccc(Cl)cc1)=NC2` [Compound 266, 6-(4-Chlorophenyl)-1-methyl-4H-isoxazolo[5,4-c]pyrido[3,4-e]azepin-8(9H)-one], the pIC50 at BRD4(BD1) (setting [4]) and with IL-6 secretion (setting [5]) was over 6.30 throughout.

With `CCNC(=O)NC1N=C(c2ccc(C#N)cc2)c2ccccc2-c2c(C)noc21` (centres unmarked) [compound 261], the pIC50 at BRD4(BD1) (setting [4]) was over 6.30; with IL-6 secretion (Table 14, LPS) it was over 6.30.

For the molecule `Cc1noc2c1-c1ccccc1C(c1ccc(C#N)cc1)=NC2NC(=O)C(C)C` (centres unmarked) [compound 264], the pIC50 on BRD4(BD1) (setting [4]) is under 6.00; with IL-6 secretion (Table 14, LPS), under 6.00.
